Measured values from US8633313B2, “Heterocyclic compounds and their uses” (Amgen Inc., priority 2009, dated 2014).

Key:
PI3K delta = target: T1, PI3K delta (Homo sapiens, UniProt O00329); assay: In vitro enzyme assay, PI3K delta biochemical potency; details: comparison of the two separated enantiomers
T1 construct: Full length p110 subunits of PI3k α, β and δ, N-terminally labeled with polyHis tag; polyHis (N); made in house; host or cells: Sf9 insect cells (baculovirus)
Procedure: Full length p110 subunits of PI3k α, β and δ, N-terminally labeled with polyHis tag, were coexpressed with p85 with Baculo virus expression vectors in sf9 insect cells. P110/p85 heterodimers were purified by sequential Ni-NTA, Q-HP, Superdex-100 chromatography. Purified α, β and δ isozymes were stored at −20° C. in 20 mM Tris, pH 8, 0.2M NaCl, 50% glycerol, 5 mM DTT, 2 mM Na cholate. Truncated PI3Kγ, residues 114-1102, N-terminally labeled with polyHis tag, was expressed with Baculo virus in Hi5 insect cells. The γ isozyme was purified by sequential Ni-NTA, Superdex-200, Q-HP chromatography. The γ isozyme was stored frozen at −80° C. in NaH2PO4, pH 8, 0.2M NaCl, 1% ethylene glycol, 2 mM β-mercaptoethanol.
Assays were performed in 25 μL with the above final concentrations of components in white polyproplyene plates (Costar 3355). Phospatidyl inositol phosphoacceptor, PtdIns(4,5)P2 P4508, was from Echelon Biosciences. The ATPase activity of the alpha and gamma isozymes was not greatly stimulated by PtdIns(4,5)P2 under these conditions and was therefore omitted from the assay of these isozymes. Test compounds were dissolved in dimethyl sulfoxide and diluted with three-fold serial dilutions. The compound in DMSO (1 μL) was added per test well, and the inhibition relative to reactions containing no compound, with and without enzyme was determined. After assay incubation at rt, the reaction was stopped and residual ATP determined by addition of an equal volume of a commercial ATP bioluminescence kit (Perkin Elmer EasyLite) according to the manufacturer's instructions, and detected using a AnalystGT luminometer.

[1] = tested on: systemic lupus erythematosis model; details: in vivo; cited from earlier work
[2] = tested on: rheumatoid arthritis model; details: in vivo; cited from earlier work
protein kinases = details: cited from earlier work
[3] = tested on: ovalbumin-induced airway inflammation; details: cited from earlier work
p110δ = target: T2, p110δ (Homo sapiens, UniProt O00329); details: cited from earlier work
T2 sequence (O00329 1-1044): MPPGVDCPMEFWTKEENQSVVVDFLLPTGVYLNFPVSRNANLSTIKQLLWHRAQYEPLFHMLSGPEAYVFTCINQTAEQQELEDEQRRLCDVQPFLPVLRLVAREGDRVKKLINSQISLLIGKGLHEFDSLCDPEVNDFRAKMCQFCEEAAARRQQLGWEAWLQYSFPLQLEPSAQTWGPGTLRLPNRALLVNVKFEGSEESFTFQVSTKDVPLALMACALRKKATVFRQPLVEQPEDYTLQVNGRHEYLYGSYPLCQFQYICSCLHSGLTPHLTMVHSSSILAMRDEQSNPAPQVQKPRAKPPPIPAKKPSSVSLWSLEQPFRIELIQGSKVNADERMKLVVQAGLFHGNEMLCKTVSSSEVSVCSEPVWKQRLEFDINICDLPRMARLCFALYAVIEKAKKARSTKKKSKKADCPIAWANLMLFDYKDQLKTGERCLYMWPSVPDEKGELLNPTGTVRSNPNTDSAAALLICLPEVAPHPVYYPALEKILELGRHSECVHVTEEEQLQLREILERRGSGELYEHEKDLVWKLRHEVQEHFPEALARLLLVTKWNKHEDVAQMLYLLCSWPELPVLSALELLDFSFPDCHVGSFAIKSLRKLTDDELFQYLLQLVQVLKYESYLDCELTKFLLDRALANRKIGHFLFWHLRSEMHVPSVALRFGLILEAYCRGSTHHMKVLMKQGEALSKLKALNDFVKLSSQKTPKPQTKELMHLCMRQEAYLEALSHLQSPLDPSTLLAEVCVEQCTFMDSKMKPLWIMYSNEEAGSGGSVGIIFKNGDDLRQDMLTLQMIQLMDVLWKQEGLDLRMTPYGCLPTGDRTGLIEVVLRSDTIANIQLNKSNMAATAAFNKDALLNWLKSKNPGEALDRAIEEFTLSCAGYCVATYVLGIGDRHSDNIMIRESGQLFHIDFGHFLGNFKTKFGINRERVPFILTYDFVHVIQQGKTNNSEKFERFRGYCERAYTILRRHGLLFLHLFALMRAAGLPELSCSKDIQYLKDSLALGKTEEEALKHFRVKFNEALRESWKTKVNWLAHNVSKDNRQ

T1 sequence (P27986 whole entry partner, one chain of several): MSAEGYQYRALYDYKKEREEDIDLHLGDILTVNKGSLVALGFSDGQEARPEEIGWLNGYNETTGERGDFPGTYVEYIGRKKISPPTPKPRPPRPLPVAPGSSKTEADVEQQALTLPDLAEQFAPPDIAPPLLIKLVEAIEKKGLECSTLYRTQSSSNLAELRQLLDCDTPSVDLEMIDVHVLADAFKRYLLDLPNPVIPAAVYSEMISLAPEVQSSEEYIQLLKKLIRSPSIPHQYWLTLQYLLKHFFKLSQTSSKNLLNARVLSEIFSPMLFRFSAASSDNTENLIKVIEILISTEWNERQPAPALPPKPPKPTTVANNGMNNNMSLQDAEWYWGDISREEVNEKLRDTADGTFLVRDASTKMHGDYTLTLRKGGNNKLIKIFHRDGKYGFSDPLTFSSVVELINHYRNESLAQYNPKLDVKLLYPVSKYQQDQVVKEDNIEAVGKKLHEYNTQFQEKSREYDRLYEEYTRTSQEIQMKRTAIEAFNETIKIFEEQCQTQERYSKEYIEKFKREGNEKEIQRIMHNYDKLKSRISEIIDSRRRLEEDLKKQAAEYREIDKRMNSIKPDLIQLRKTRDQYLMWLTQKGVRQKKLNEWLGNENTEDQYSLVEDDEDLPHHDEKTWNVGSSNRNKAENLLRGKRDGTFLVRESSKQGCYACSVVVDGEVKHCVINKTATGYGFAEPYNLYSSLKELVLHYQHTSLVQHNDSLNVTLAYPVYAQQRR

Compound: C[C@H](Nc1ncnc(N)c1C#N)c1cc2ncccc2nc1-c1cc(F)cc(F)c1 (single isomer, unassigned; isomer 4) [Example 3 S-isomer]
- PI3K delta biochemical potency, one isomer relative to the other (PI3K delta): more potent

Compound: O=C1NC(=O)/C(=C\c2ccc3nccnc3c2)S1 [AS 605240]
- onset of disease in a model of systemic lupus erythematosis [1]: delay onset of disease
- efficacy in a mouse model of rheumatoid arthritis [2]: efficacious

Compound: C[C@H](Nc1ncnc(N)c1C#N)c1nc2cccnc2cc1-c1ccccc1 (single isomer, unassigned; isomer 4) [Example 4 S-isomer]
- PI3K delta biochemical potency, one isomer relative to the other (PI3K delta): more potent

Compound: C[C@@H](Nc1ncnc(N)c1C#N)c1nc2cccnc2cc1-c1ccccc1 (single isomer, unassigned; isomer 4) [Example 4 R-isomer]
- PI3K delta biochemical potency, one isomer relative to the other (PI3K delta): less potent

Compound: C[C@H](Nc1ncnc(N)c1C#N)c1cc2ncccc2nc1-c1ccccc1F (single isomer, unassigned; isomer 4) [Example 2 S-isomer]
- PI3K delta biochemical potency, one isomer relative to the other (PI3K delta): more potent

Compound: C[C@@H](Nc1ncnc(N)c1C#N)c1cc2ncccc2nc1-c1ccccc1F (single isomer, unassigned; isomer 4) [Example 2 R-isomer]
- PI3K delta biochemical potency, one isomer relative to the other (PI3K delta): less potent

Compound: Cc1ccccc1-n1c(Cn2cnc3c(N)ncnc32)nc2cccc(C)c2c1=O [IC87114]
- activity against any protein kinases tested (protein kinases): no activity
- inflammation and disease in a murine model of asthma [3]: significantly ameliorate inflammation and disease
- inhibition of p110δ (p110δ): high nanomolar range (triple digit)

Compound: C[C@@H](Nc1ncnc(N)c1C#N)c1cc2ncccc2nc1-c1cc(F)cc(F)c1 (single isomer, unassigned; isomer 4) [Example 3 R-isomer]
- PI3K delta biochemical potency, one isomer relative to the other (PI3K delta): less potent
